The structures appear in SMILES notation. Read-outs that look alike come from different tables or passages of the source.

Data set [1] relates to AdV8. Nature of the data set: Plaque reduction antiviral IC50 assay in A549, AdV8. In kind it is cell-based, adenovirus 8. The protocol:
(§1) The effectiveness of filociclovir to inhibit a number of adenovirus strains associated with conjunctivitis were tested in an in vitro assay. To determine the in vitro IC50 concentrations, i.e., the concentration of filociclovir that inhibits adenovirus plaque formation by 50%, filociclovir and cidofovir (CDV) were tested against a panel of 7 ocular types of adenovirus.
(§2) 42 A549 24-well multiplates (1 per each drug and each virus strain) were prepared. 7 adenovirus serotypes were tested at a time. Virus dilutions from known titer of stock viruses (approx. 100 PFU/0.1 ml) were prepared with AdV3 L, AdV4 H, AdV5 M, AdV7a J, AdV8 E, AdV 19/64 K, and AdV37 ATCC. 0.1 ml (containing approx. 100 PFU) of each of the 7 viruses were plated onto all 24 wells of an A549 multiplate and incubated at 37° C. in a 5% CO2 water-vapor atmosphere for 3 hours.
(§3) Dilutions of filociclovir and cidofovir were prepared at 400, 40, 4.0, 0.4, 0.04, and 0.004 μM in 2× nutrient tissue culture media, following the dilution protocol: 7.5 ml of each of filociclovir and cidofovir dilution was added to a tube and 22.5 ml of methylcellulose in outgrowth medium (OG) was then added to each tube. 1 ml of each filociclovir and cidofovir dilutions was added to an additional 15 ml tube and 3 ml of OG was added to each tube. This was the overlay for the Adv8 plates. Normal methylcellulose overlay medium without any drug was used for the control wells for each plate.
(§4) For each virus plate, 3 wells were overlaid with each of the 6 final filociclovir and cidofovir concentrations (100, 10, 1.0, 0.1, 0.01, and 0.001 μM) and 6 wells with the control media. Plates were incubated at 37° C. in a 5% CO2 water-vapor atmosphere until plaques were visible. When plaques became visible, plates were stained with gentian violet and plaques were counted at 25λ using a dissecting microscope. The IC50 concentrations were determined from Fitted Line Plot regression analysis using Minitab. All assays were performed in triplicate.

The test system of data set [2] is Adenovirus 5 (AdV5). The experiment in a line: Cytopathic effects (CPE) reduction assay, AdV5 in HFF cells, 384-well. The data set is classed as cell-based, human adenovirus 5 (AdV5). The settings on record: for selectivity ratio: human, adenovirus 5, HFF cells, read-out: SI (selective index, CC50/EC50). For orientation: Damage to the host cells serves as the signal in cytopathic effect assays.
Procedure: Antiviral and cytotoxicity data were obtained in a series of three to five separate experiments for each virus to provide an accurate estimate of antiviral activity and statistical data. Each assay included positive and negative control compounds as well as infected and uninfected controls to ensure the integrity of the experiment.
The CPE reduction assays were performed in monolayers of human foreskin fibroblast (HFF) cells (5000/well) in 384-well plates in assay media consisting of MEM with Earle's salts, 2% FBS and standard concentrations of L-glutamine, penicillin and gentamycin. 5000 cells were seeded in 384-well microtiter plates and incubated at 37° C. in a humidified 5% CO2 incubator for 24 hours to allow for formation of confluent monolayers.
Cell monolayers were infected at a multiplicity of infection (MOI) of approximately 0.005 PFU/cell with virus strains including AdV5. […] Cytopathology was determined by the addition of CellTiter-Glo® reagent (Promega, Madison, Wis.). Concentrations of antiviral test compounds sufficient to reduce CPE by 50% (EC50) were interpolated from the experimental data using standard methods in Microsoft® Excel.

Data set [3] concerns AdV5. The experiment in a line: Plaque reduction antiviral IC50 assay in A549, AdV5. In kind it is cell-based, adenovirus 5. The settings on record: Human mastadenovirus C. The protocol:
as §1, §2, §3, §4

In data set [4] the test system is AdV3. Nature of the data set: Plaque reduction antiviral IC50 assay in A549, AdV3. The data set is classed as cell-based, adenovirus 3. The settings on record: Human mastadenovirus B. Here is the method: as §1, §2, §3, §4
Data set [5] relates to panel of ocular adenovirus types (Ad3, Ad4, Ad5, Ad7a, Ad8, Ad19/64, and Ad37). Nature of the data set: Plaque reduction antiviral IC50 assay, whole panel of ocular adenovirus types. The data set is classed as cell-based, adenovirus Species B, C, D, and E. The settings on record: unidentified adenovirus. Here is the method:
as §1, §2, §3, §4

In data set [6] the test system is AdV5. The experiment in a line: Adenovirus/NZW rabbit ocular model. The data set is classed as in vivo, New Zealand White (NZW) rabbit. Here is the method: The ability of filociclovir to inhibit adenovirus-related conjunctivitis was tested in a New Zealand White (NZW) rabbit ocular model.
20 NZW rabbits (1.1-1.4 kg) were given general anesthesia with ketamine & xylazine, topical anesthesia with proparacaine, and corneal scarification (12 cross-hatched strokes of a #25 needle) followed by inoculation in both eyes with 50 μl of […] of AdV5 M (6.0×10^8 PFU/ml). Eyes were closed and gently rubbed for 5 seconds to ensure contact of the virus on all ocular surfaces. All rabbits were treated with analgesia in the form of intramuscular injections of ketoprofen (1.5 mg/kg).
Beginning 2 hours after inoculation, all eyes were cultured for virus. Following topical anesthesia with proparacaine, a single cotton-tipped swab was placed into the lower fornix of each eye, rolled over the cornea into the upper fornix to recover adenovirus from the tear film and corneal and conjunctival surfaces. The swabs from each eye were placed individually into tubes containing 1 ml of outgrowth media and were frozen at −80° C. pending plaque assay.
On Day 1, the rabbits were divided into 4 treatment groups for drug administration as set forth in the chart below. The four treatment groups were 0.5% Filociclovir; 0.1% Filociclovir; 0.5% cidofovir; and the negative vehicle control (10% 2-Hydroxpropyl)-β-cyclodextrin, 0.2% cremophore).
Treatments began on Day 1 and drops were administered with at least a 2-hour interval between drops. The eyes of each rabbit were cultured for virus on days 1, 3, 4, 5, 7, 9, 11, and 14 post-inoculation (PI) at least 1 hour after the final drop. At various times during the course of the experiment, AdV5 titers were determined on A549 cell monolayers using a standard plaque assay. The ocular cultures to be titered were thawed, diluted (1:10) and inoculated onto A549 monolayers. The virus was adsorbed for 3 hours. Following adsorption, 1 ml of media plus 0.5% methylcellulose was added to each well, and the plates were incubated at 37° C. in a 5% CO2-water vapor atmosphere. After 7 days incubation, the cells were stained with 0.5% gentian violet, and the numbers of plaques were counted under a dissecting microscope (25λ). The viral titers were then calculated and expressed as plaque-forming units per milliliter (PFU/ml). The data were analyzed statistically using True Epistat and/or Minitab statistical software. Outcome measures included Daily AdV5-Positive Cultures per Total (FIG. 9), Duration of Shedding (FIG. 10) and Daily Viral Titers (FIG. 11). Significance was established at the p≤0.05 confidence level.

In data set [7] the test system is CMV. The settings on record: β Herpesvirus, cited from earlier work.
Data set [8] concerns AdV 4. Nature of the data set: Antiviral EC50 against AdV 4 (method not given). In kind it is cell-based, adenovirus 4. The settings on record: Human mastadenovirus E; AdV 4, summary table.
Data set [9] deals with JC Virus. The settings on record: Polyomavirus, cited from earlier work.
Setting [10] is: read-out: mean IC50 concentrations across the panel (upper bound).
[11] abbreviates: read-out: range of mean IC50 concentrations across the panel.
[12] abbreviates: 0.5% topical 2 times daily for 7 days, compared with Vehicle control.
Where [13] appears, read: 0.1% topical 4 times daily for 10 days, compared with Vehicle control.
Where [14] appears, read: 0.5% filociclovir compared with 0.5% cidofovir.
The mark [15] stands for this setting: 0.5% filociclovir compared with the 0.1% filociclovir group.
[16] abbreviates: 0.5% topical 4 times daily for 10 days, compared with Vehicle control.

What is called EC50 is the concentration needed to bring the measured effect to its halfway point. Regarding `Nc1ccn(C[C@@H](CO)OCP(=O)(O)O)c(=O)n1` [CDV, cidofovir, reference compound], the IC50 came to 0.487 µM in [1] (read-out: Mean IC50); 0.474 µM in data set [1] (read-out: Median IC50); 30.3 µM in data set [3] (read-out: Mean IC50); 38.8 µM in [3] (read-out: Median IC50); 5.78 µM in data set [4] (read-out: Mean IC50); 6.02 µM in data set [4] (read-out: Median IC50). Further, the figures for the IC50 in data set [5] (setting [10]) and in data set [5] (setting [11]) were less than 31 µM and 0.487 to 30.3 µM, respectively. The compound also registered an EC50 in data set [2] (Human mastadenovirus C, AdV 384 Well CPE, HFF cells, average and SD from five independent experiments) of 4 ± 2 µM. Besides, in data set [2], the selectivity ratio stood at 24. In data set [6] (setting [12]), the “adenovirus positive cultures per total (FIG. 9)” value is “fewer number of adenovirus positive cultures per total on Days 7, 9, and 11”. Moreover, the “adenovirus titers (FIG. 11)” value in [6] (setting [12]) was “significantly lower adenovirus titers on Days 3, 4, 5, 7, 9, and 11”. Also, the “duration of shedding (FIG. 10)” value in [6] (setting [12]) was “shorter duration of shedding”.

Take `Nc1nc2c(ncn2/C=C2/CC2(CO)CO)c(=O)[nH]1` [Filociclovir, 2-amino-9-{(Z)-[2,2-bis(hydroxymethyl)cyclopropylidene]methyl}-3,9-dihydro-6H-purin-6-one]: the EC50 in data set [7] (listed as filociclovir) is no more than 10 µM; in data set [7], 1 ± 0.6 µM; in data set [8], 2.4 µM; in data set [9] (listed as filociclovir), no more than 50 µM; in data set [9], 46 ± 44 µM. Further, the IC50 in data set [1] (read-out: Mean IC50) stood at 0.496 µM; in data set [1] (read-out: Median IC50) it was 0.485 µM; in data set [3] (read-out: Mean IC50), 4.68 µM; in data set [3] (read-out: Median IC50), 4.62 µM; in data set [4] (read-out: Mean IC50), 0.778 µM; in data set [4] (read-out: Median IC50) it was 0.756 µM. For the same compound, the figures for the IC50 in data set [5] (setting [10]) and in [5] (setting [11]) were less than 5 µM and 0.496 to 4.68 µM, respectively. In data set [2] (AdV5, tested 0.01 to 100 μM, 'as low as'), the “concentration effective to reduce AdV replication (FIG. 1)” value is no less than 0.2 µM. Besides, in [2], the selectivity ratio was 43. Also, the “adenovirus positive cultures per total (FIG. 9)” value in [6] (setting [13]) was “fewer number of adenovirus positive cultures per total on Days 7, 9, and 11”; in data set [6] (setting [15]), “fewer number of adenovirus positive cultures per total on Day 4”; in data set [6] (setting [16]) it was “fewer number of adenovirus positive cultures per total on Days 4, 5, 7, 9, and 11”. Moreover, the “adenovirus titers (FIG. 11)” value was “significantly lower adenovirus titers on Days 1, 3, 4, 5, 7, 9, and 11” in data set [6] (setting [13]); “significantly lower adenovirus titers on Days 3, 4, and 5” in data set [6] (setting [15]); “significantly lower adenovirus titers on Days 1, 3, 4, 5, 7, 9, and 11” in [6] (setting [16]). For the same compound, the “duration of shedding (FIG. 10)” value in data set [6] (setting [13]) is listed as “shorter duration of shedding”. In addition, in data set [6] (setting [14]), the “adenovirus positive cultures per total” value is given as “fewer number of adenovirus positive cultures per total on Day 4”. Further, the adenovirus titers entry in data set [6] (setting [14]) is “significantly lower adenovirus titers on Days 1, 3, 4, and 5”. Moreover, the “duration of adenovirus shedding (FIG. 10)” value in data set [6] (setting [16]) was “shorter duration of adenovirus shedding”.

Values taken from US20220370464A1, “COMPOSITIONS AND METHODS OF TREATING OR PREVENTING OCULAR INFECTIONS WITH FILOCICLOVIR” (Microbiotix, Inc., priority 2019, published 2022).
